Data published in patent US20260137697A1, “THIAZOLO[5,4-D]PYRIMIDINE COMPOUNDS, COMPOSITIONS COMPRISING THEM AND USES THEREOF” (University de Montreal, priority 2022, published 2026).
Where two headings read alike, the source gives them in different places.

Experiments:
Type in all cases: cell-based, human
pERK, Calu6 cells = test: Phospho-ERK inhibition, AlphaLISA p-ERK 1/2, Calu-6; conditions: Table D-2; for IC50: Calu6 (KRAS Q61K); for pERK value in parentheses, % inhibition (Ymin): Calu6, lowest point of IC50 curve
Description: (§1) All cancer cell lines (A375, A101D, A2058, RKO, HT29 SK-MEL 30, IPC298, HepG2, HCT-116, Lovo, SW620, SW480, NCI-H358, NCI-H2122, Calu-6, NCIH2087, NCIH1755, NCIH1666 and Mewo) were obtained from ATCC and cultured in RPM1-1640 medium (Gibco) supplemented with 5% heat inactivated fetal bovine serum (FBS, Wisent) at 37° C. under 5% CO2. Cells were maintained in T175 flasks (Greiner). They were passaged by removing the culture medium, washing once in 10 mL of room temperature Phosphate Buffered Saline (PBS; Wisent) and incubating at 37° C. with 2 mL of 0.05% Trypsin (Thermo-Fisher). Trypsin was then inactivated by adding complete growth medium and the cells were then replated in a T175 culture dish at the appropriate dilution. All cell lines were routinely tested for mycoplasma contamination. Tissue type and mutational status of each cell line can be found in Table B.
(§2) (c) Measurement of Phospho-ERK Inhibition in Cultivated Human Cancer Cell Lines by the AlphaLISA® SureFire® Ultra™ p-ERK 1/2 (Thr2O2/Tyr204)
(§3) AlphaLISA® SureFire® Ultra™ p-ERK 1/2 (Thr202/Tyr204) analysis was conducted on cells plated in 100 μL of complete RPMI-1640 growth medium in 96-well flat-bottomed transparent dishes (Costar) at a density indicated in Table C. Cells were maintained overnight at 37° C. under 5% CO2 before treatment with compounds' dilution series for one hour. The cell density in cells/cm^2 corresponds to cell number divided by the area of one well of a 96-well plate (0.143 cm^2).
(§4) In a dilution series 100 μL/well of test substance dilution prepared in complete RPMI-1640 growth media was added to the cells. The dilution series is selected so that ten concentrations cover a range from 10 μM to 0.33 nM. If necessary, the initial concentration of 10 μM is increased to 100 μM or lowered to 1 μM (as in the case of A375 and H1666 cells, which are generally more sensitive to the compounds) and further dilution is carried out accordingly. The final concentration of DMSO in the assay is set at 0.5%.
(§5) After treatment, media was removed, and cells were lysed in 50 μL of 1× AlphaScreen Ultra Lysis Buffer (Perkin Elmer). The AlphaLISA® SureFire® Ultra™ p-ERK 1/2 (Thr202/Tyr204) (PerkinElmer) reactions were performed with 5 μL of cell lysate according to the manufacturer's specifications in 384-well proxyplates (Perkin Elmer) followed by overnight incubation of the reactions at room temperature in a humidified chamber. After completion of the reactions, the signals were recorded on an EnVision plate reader (Perkin Elmer) using built in AlphaLISA® settings.
(§6) The effect of each compound dilution on the pERK signal was expressed in % inhibition and calculated as follows. An internal 100% inhibition control (1 μM trametinib, cat. No. HY-10999; MedChem Express; CAS No. 871700-17-3) was included in each plate and used as a measure of pERK background. First, the value obtained for trametinib was subtracted from each data point. The average of DMSO (vehicle) controls (set as 0% inhibition) was established and used to calculate % inhibition:
(§7) The ability of each compound to inhibit pERK signal was expressed as an IC50 value obtained by plotting the inhibition values for each data point of a dilution series and fitting the obtained curves using a log(agonist) versus response—variable slope (four parameters) function using GraphPadPrism (V7.0) or Dotmatics Screening Ultra platform.
(§8) When present, paradoxical pERK induction is inferred from the negative % inhibition values observed in the pERK IC50 curves of a compound.

HCT116 cells = test: Proliferation inhibition, CellTiter-Glo, HCT116; conditions: Table D-1, HCT116 (KRAS G13D), 3 days, read-out: Prolif. (proliferation EC50)
Description: as §1
(§9) CellTiter-Glo® viability analysis was conducted on cells plated in 100 μL of complete RPMI-1640 growth medium in 96-well flat-bottomed white opaque plates (Greiner or Croning) at a density indicated in Table E (for each CCL, number of cells plated per well of a 96-well plate to perform the CellTiter-Glo® cell viability assay). The cell density in cells/cm^2 would correspond to cell number divided by the area of one well of a 96-well plate (0.32 cm^2). […]
(§10) After 3 days of incubation, the growth media were removed by aspiration and 60 μL of diluted CellTiter-Glo® reagent (10 μL CellTiter-Glo® reagent+50 μL of PBS) was added to each well. […] Luminescence signals were then acquired on a Synergy Neo2 plate reader (Biotek).
(§11) The effect of each compound dilution on the proliferation of cancer cell lines was expressed in % inhibition and calculated as follows. […]
as §7, with “proliferation” for “pERK signal”, “a EC50” for “an IC50”, “effect” for “inhibition”

Lovo cells = test: Proliferation inhibition, CellTiter-Glo, Lovo; conditions: Table D-2, Lovo (KRAS-G13D), 3 days, read-out: Prolif. (proliferation EC50)
Description: as §1, §9, §10, §11
as §7, with “proliferation” for “pERK signal”, “a EC50” for “an IC50”, “effect” for “inhibition”

HepG2 cells = test: Proliferation inhibition, CellTiter-Glo, HepG2; conditions: Table D-1, HepG2 (NRAS-Q61L), 3 days, read-out: Prolif. (proliferation EC50)
Description: as §1, §9, §10, §11
as §7, with “proliferation” for “pERK signal”, “a EC50” for “an IC50”, “effect” for “inhibition”

pERK, NCIH2087 cells = test: Phospho-ERK inhibition, AlphaLISA p-ERK 1/2, NCIH2087; conditions: Table D-2; for IC50: NCIH2087 (BRAF L597V; KRAS Q61K); for pERK value in parentheses, % inhibition (Ymin): NCIH2087, lowest point of IC50 curve
Description: as §1, §2, §3, §4, §5, §6, §7, §8

IC50 (pERK, Calu6 cells; Homo sapiens, Calu-6)	EC50 (HCT116 cells; Homo sapiens, HCT-116, 72 h)	EC50 (Lovo cells; Homo sapiens, 72 h)	EC50 (HepG2 cells; Homo sapiens, 72 h)	IC50 (pERK, NCIH2087 cells; Homo sapiens, NCI-H2087)	IC50 (pERK, Calu6 cells)	EC50 (HCT116 cells)	EC50 (Lovo cells)	EC50 (HepG2 cells)	IC50 (pERK, NCIH2087 cells)	Compound	pERK value in parentheses, % inhibition (Ymin) (pERK, Calu6 cells)	pERK value in parentheses, % inhibition (Ymin) (pERK, NCIH2087 cells)
0.03 to 0.3 µM	0.3 to 3 µM	< 0.3 µM	< 0.3 µM	< 0.03 µM						Cc1ccc2c(Nc3cccc(Cl)c3F)nccc2c1NC(=O)c1csc2c(N)ncnc12 [Belvarafenib, reference compound]	(−39) %	6%
					< 0.03 µM	< 0.3 µM	< 0.3 µM	< 0.3 µM	< 0.03 µM	Cc1c(F)cccc1S(=O)(=O)Nc1ccc(F)c(Nc2ncnc3sc(-n4cc(C(=O)N5C6CCC5CN(C)C6)c5ccccc54)nc23)c1F [Example 44]	(−12) %	4%
					0.03 to 0.3 µM	< 0.3 µM	< 0.3 µM	< 0.3 µM	< 0.03 µM	N#CC1(c2cccc3c2ncn3-c2nc3c(Nc4c(F)ccc(NS(=O)(=O)c5cccc(Cl)c5Cl)c4F)ncnc3s2)CC1 [Example 122]	(−8) %	4%
